Laboratory results as given in patent US12685726B2, “Sulfoximines as inhibitors of NaV1.8” (Gruenenthal GmbH, priority 2022, dated 2026).

Target: T1, human NaV 1.8 (Homo sapiens, UniProt Q9Y5Y9)
T1 construct: expressed in transfected cells; host or cells: HEK (recombinant cell line)
Test: Automated whole-cell patch clamp (Qube384) voltage-clamp recordings of sodium currents in HEK-NaV1.8 cell line
Type: cell-based
Conditions: read-out: Potency category (human NaV 1.8 IC50)
Procedure, shortened: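 HEK cells expressing NaV1.8 with b3, whole-cell automated voltage clamp at room temperature or 19° C.; CsF-based internal, pH 7.4 external. State-dependent (−120 mV, V1/2 4 s, −10 mV test pulses) and 10/20 Hz 40-pulse protocols; ~12 min compound, vehicle-corrected, IC50 by 4-parameter logistic fit.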

T1 sequence (Q9Y5Y9 whole entry): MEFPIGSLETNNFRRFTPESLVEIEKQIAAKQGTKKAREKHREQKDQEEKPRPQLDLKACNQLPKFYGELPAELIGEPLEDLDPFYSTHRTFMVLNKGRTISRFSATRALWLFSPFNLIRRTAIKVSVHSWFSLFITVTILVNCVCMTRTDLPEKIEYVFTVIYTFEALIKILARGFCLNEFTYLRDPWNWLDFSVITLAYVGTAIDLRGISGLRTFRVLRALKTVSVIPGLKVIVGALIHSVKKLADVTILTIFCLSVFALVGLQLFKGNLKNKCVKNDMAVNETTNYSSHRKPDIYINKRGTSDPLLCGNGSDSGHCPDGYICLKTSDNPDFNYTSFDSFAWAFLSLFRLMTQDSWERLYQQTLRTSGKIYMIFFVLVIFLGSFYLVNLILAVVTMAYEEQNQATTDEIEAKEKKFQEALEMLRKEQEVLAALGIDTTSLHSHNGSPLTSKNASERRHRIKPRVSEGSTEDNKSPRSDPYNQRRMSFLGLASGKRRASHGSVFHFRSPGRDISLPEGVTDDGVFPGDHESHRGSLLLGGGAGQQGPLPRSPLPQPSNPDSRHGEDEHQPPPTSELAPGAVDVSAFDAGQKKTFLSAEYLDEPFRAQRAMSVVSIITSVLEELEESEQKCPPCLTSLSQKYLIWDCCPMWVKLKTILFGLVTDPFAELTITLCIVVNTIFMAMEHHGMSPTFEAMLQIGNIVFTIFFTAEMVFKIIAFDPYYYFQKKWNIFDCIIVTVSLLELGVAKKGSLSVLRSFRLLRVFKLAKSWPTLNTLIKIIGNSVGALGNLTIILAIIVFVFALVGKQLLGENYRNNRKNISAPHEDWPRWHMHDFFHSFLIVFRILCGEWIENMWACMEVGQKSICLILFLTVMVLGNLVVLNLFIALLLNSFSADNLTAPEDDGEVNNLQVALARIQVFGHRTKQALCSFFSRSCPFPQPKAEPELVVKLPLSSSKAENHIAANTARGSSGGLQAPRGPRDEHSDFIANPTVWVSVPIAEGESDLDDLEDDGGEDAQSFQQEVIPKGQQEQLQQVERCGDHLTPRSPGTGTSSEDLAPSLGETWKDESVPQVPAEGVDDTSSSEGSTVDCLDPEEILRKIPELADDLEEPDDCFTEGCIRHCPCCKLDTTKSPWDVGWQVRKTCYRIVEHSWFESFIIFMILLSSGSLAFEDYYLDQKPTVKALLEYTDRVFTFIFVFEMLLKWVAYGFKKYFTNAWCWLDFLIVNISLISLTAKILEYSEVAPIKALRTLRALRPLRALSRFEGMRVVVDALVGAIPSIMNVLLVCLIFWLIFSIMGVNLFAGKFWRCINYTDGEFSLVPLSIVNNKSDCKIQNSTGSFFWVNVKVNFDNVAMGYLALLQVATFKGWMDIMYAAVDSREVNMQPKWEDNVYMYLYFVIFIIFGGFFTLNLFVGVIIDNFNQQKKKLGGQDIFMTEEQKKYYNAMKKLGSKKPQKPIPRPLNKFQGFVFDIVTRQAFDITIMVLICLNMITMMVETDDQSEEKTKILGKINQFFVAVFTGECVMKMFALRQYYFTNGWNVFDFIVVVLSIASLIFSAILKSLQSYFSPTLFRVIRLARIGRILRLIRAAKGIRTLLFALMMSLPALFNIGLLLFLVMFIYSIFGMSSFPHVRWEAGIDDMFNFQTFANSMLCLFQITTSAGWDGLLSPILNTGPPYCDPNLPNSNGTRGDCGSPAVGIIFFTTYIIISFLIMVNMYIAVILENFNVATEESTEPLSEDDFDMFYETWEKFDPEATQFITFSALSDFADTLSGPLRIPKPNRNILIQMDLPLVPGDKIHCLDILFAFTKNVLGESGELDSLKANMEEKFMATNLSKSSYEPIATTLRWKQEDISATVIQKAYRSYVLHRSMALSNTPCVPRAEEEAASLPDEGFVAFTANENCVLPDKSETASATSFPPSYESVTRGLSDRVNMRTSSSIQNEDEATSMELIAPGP

| Compound | IC50 [nM] |
| --- | --- |
| CS(=N)(=O)c1cc(NC(=O)c2c(C(F)(F)F)c(C3CC3)nn2CC23CC(F)(C2)C3)ccn1 (single isomer, unassigned) [Example 25b, 3-cyclopropyl-1-((3-fluorobicyclo[1.1.1]pentan-1-yl)methyl)-N-(2-(S-methylsulfonimidoyl)pyridin-4-yl)-4-(trifluoromethyl)-1H-pyrazole-5-carboxamide] | 100 to 1000 |
| CS(=N)(=O)c1cc(NC(=O)c2c(C(F)(F)F)c(OC(F)F)nn2CC2CCC(F)(F)C2)ccn1 (stereo not drawn) [Example 33, 1-((3,3-Difluorocyclopentyl)methyl)-3-(difluoromethoxy)-N-(2-(S-methylsulfonimidoyl)pyridin-4-yl)-4-(trifluoromethyl)-1H-pyrazole-5-carboxamide] | ≤ 100 |
| CC1(Cn2nc(C3(F)CC3)c(C(F)(F)F)c2C(=O)Nc2cccc(S(=N)(=O)C(F)F)c2)CC(F)(F)C1 (single isomer, unassigned) [Example 130b, 1-((3,3-Difluoro-1-methylcyclobutyl)methyl)-N-(3-(S-(difluoromethyl)sulfonimidoyl)phenyl)-3-(1-fluorocyclopropyl)-4-(trifluoromethyl)-1H-pyrazole-5-carboxamide] | ≤ 100 |
| CS(=N)(=O)c1cc(NC(=O)c2c(C(F)(F)F)c(C34CC(C3)C4)nn2CC2C[C@@H]2C(F)(F)F)ccn1 (stereo partly drawn) [Example 147] | ≤ 100 |
| CC1(Cn2nc(C3(F)CC3)c(C(F)(F)F)c2C(=O)Nc2cccc(S(C)(=N)=O)c2)CC(F)(F)C1 (single isomer, unassigned) [Example 109a, 1-((3,3-Difluoro-1-methylcyclobutyl)methyl)-3-(1-fluorocyclopropyl)-N-(3-(S-methylsulfonimidoyl)phenyl)-4-(trifluoromethyl)-1H-pyrazole-5-carboxamide] | ≤ 100 |
| Cc1c(C(C)(F)F)nn(CC23CC(C(F)(F)F)(C2)C3)c1C(=O)Nc1ccnc(S(C)(=N)=O)c1 (single isomer, unassigned) [Example 15a, 3-(1,1-difluoroethyl)-4-methyl-N-(2-(S-methylsulfonimidoyl)pyridin-4-yl)-1-((3-(trifluoromethyl)bicyclo[1.1.1]pentan-1-yl)methyl)-1H-pyrazole-5-carboxamide] | ≤ 100 |
| C[S@](=N)(=O)c1cc(NC(=O)c2c(C(F)(F)F)c(C3CC3)nn2C[C@@H]2C(F)(F)C23CC3)ccn1 (single isomer, unassigned) [Example 79d, 3-cyclopropyl-1-((2,2-difluorospiro[2.2]pentan-1-yl)methyl)-N-(2-(S-methylsulfonimidoyl)pyridin-4-yl)-4-(trifluoromethyl)-1H-pyrazole-5-carboxamide] | ≤ 100 |
| CS(=N)(=O)c1cccc(NC(=O)c2c(C(F)(F)F)c(C34CC(C3)C4)nn2CC2C[C@@H]2C(F)F)c1 (stereo in doubt) [Example 139, 3-(Bicyclo[1.1.1]pentan-1-yl)-1-(((trans)-2-(difluoromethyl)cyclopropyl)methyl)-N-(3-(S-methylsulfonimidoyl)phenyl)-4-(trifluoromethyl)-1H-pyrazole-5-carboxamide] | ≤ 100 |
| CC1(Cn2nc(C3CCC3)c(C(F)(F)F)c2C(=O)Nc2ccnc(S(C)(=N)=O)c2)CC(F)(F)C1 (single isomer, unassigned) [Example 56b, 3-cyclobutyl-1-((3,3-difluoro-1-methylcyclobutyl)methyl)-N-(2-(S-methylsulfonimidoyl)pyridin-4-yl)-4-(trifluoromethyl)-1H-pyrazole-5-carboxamide] | ≤ 100 |
| CCS(=N)(=O)c1cc(NC(=O)c2c(C(F)(F)F)c(C3CC3)nn2CC2(C)CC(F)(F)C2)ccn1 (single isomer, unassigned) [Example 48b, 3-cyclopropyl-1-((3,3-difluoro-1-methylcyclobutyl)methyl)-N-(2-(ethylsulfonimidoyl)pyridin-4-yl)-4-(trifluoromethyl)-1H-pyrazole-5-carboxamide] | ≤ 100 |
| CS(=N)(=O)c1cc(NC(=O)c2c(C(F)(F)F)c(C3CC3)nn2CC2C(F)(F)C23CCC3)ccn1 (single isomer, unassigned) [Example 136a, 3-Cyclopropyl-1-((2,2-difluorospiro[2.3]hexan-1-yl)methyl)-N-(2-(S-methylsulfonimidoyl)pyridin-4-yl)-4-(trifluoromethyl)-1H-pyrazole-5-carboxamide] | ≤ 100 |
| CC(=O)N1CC2(CCC2Cn2nc(C3CC3)c(C(F)(F)F)c2C(=O)Nc2ccnc(S(C)(=N)=O)c2)C1 (single isomer, unassigned) [Example 140b, 1-((2-Acetyl-2-azaspiro[3.3]heptan-5-yl)methyl)-3-cyclopropyl-N-(2-(S-methylsulfonimidoyl)pyridin-4-yl)-4-(trifluoromethyl)-1H-pyrazole-5-carboxamide] | 100 to 1000 |
| CC1(Cn2nc(C34CC(F)(C3)C4)c(C(F)(F)F)c2C(=O)Nc2ccnc(S(C)(=N)=O)c2)CC(F)(F)C1 (single isomer, unassigned) [Example 110a, 1-((3,3-Difluoro-1-methylcyclobutyl)methyl)-3-(3-fluorobicyclo[1.1.1]pentan-1-yl)-N-(2-(S-methylsulfonimidoyl)pyridin-4-yl)-4-(trifluoromethyl)-1H-pyrazole-5-carboxamide] | ≤ 100 |
| CS(=N)(=O)c1cc(NC(=O)c2c(C(F)(F)F)c(C3CC3)nn2CC23CCC(F)(CC2)C3)ccn1 (single isomer, unassigned) [Example 106a, 3-cyclopropyl-1-((4-fluorobicyclo[2.2.1]heptan-1-yl)methyl)-N-(2-(S-methylsulfonimidoyl)pyridin-4-yl)-4-(trifluoromethyl)-1H-pyrazole-5-carboxamide] | ≤ 100 |
| CN=S(C)(=O)c1cc(NC(=O)c2c(C)c(C(C)(F)F)nn2CC2(C)CC(F)(F)C2)ccn1 (single isomer, unassigned) [Example 34a, 1-((3,3-Difluoro-1-methylcyclobutyl)methyl)-3-(1,1-difluoroethyl)-N-(2-(N,S-dimethylsulfonimidoyl)pyridin-4-yl)-4-methyl-1H-pyrazole-5-carboxamide] | ≤ 100 |
| Cc1c(C(C)(F)F)nn(CC2CCC(F)(F)CC2)c1C(=O)Nc1ccnc(S(C)(=N)=O)c1 (single isomer, unassigned) [Example 9b, 1-((4,4-difluorocyclohexyl)methyl)-3-(1,1-difluoroethyl)-4-methyl-N-(2-(S-methylsulfonimidoyl)pyridin-4-yl)-1H-pyrazole-5-carboxamide] | ≤ 100 |
| CS(=N)(=O)c1cc(NC(=O)c2c(C(F)(F)F)c(C3CC3)nn2CC2(C(F)(F)F)CCCC2)ccn1 (single isomer, unassigned) [Example 98b, 3-cyclopropyl-N-(2-(S-methylsulfonimidoyl)pyridin-4-yl)-4-(trifluoromethyl)-1-((1-(trifluoromethyl)cyclopentyl)methyl)-1H-pyrazole-5-carboxamide] | ≤ 100 |
| Cc1c(C(C)(F)F)nn(CC2(C)CC(F)(F)C2)c1C(=O)Nc1ccnc(S(C)(=N)=O)c1 (single isomer, unassigned) [Example 5a, 1-((3,3-difluoro-1-methylcyclobutyl)methyl)-3-(1,1-difluoroethyl)-4-methyl-N-(2-(S-methylsulfonimidoyl)pyridin-4-yl)-1H-pyrazole-5-carboxamide] | ≤ 100 |
| CS(=N)(=O)c1cc(NC(=O)c2c(C(F)(F)F)c(C3CC3)nn2CC2C(F)(F)C23CCC3)ccn1 (single isomer, unassigned) [Example 136d, 3-Cyclopropyl-1-((2,2-difluorospiro[2.3]hexan-1-yl)methyl)-N-(2-(S-methylsulfonimidoyl)pyridin-4-yl)-4-(trifluoromethyl)-1H-pyrazole-5-carboxamide] | ≤ 100 |
| CC1(Cn2nc(C3CC3)c(C(F)(F)F)c2C(=O)Nc2cccc(S(C)(=N)=O)c2)CC(F)(F)C1 (single isomer, unassigned) [Example 45a, 3-cyclopropyl-1-((3,3-difluoro-1-methylcyclobutyl)methyl)-N-(3-(S-methylsulfonimidoyl)phenyl)-4-(trifluoromethyl)-1H-pyrazole-5-carboxamide] | ≤ 100 |
| CC1(Cn2nc(C(C)(F)F)c(C(F)(F)F)c2C(=O)Nc2ccnc(S(C)(=N)=O)c2)CC(F)(F)C1 (single isomer, unassigned) [Example 75a, 1-((3,3-difluoro-1-methylcyclobutyl)methyl)-3-(1,1-difluoroethyl)-N-(2-(S-methylsulfonimidoyl)pyridin-4-yl)-4-(trifluoromethyl)-1H-pyrazole-5-carboxamide] | ≤ 100 |
| CC1(Cn2nc(C34CC(F)(C3)C4)c(C(F)(F)F)c2C(=O)Nc2ccnc(S(C)(=N)=O)c2)CC(F)(F)C1 (single isomer, unassigned) [Example 110b, 1-((3,3-Difluoro-1-methylcyclobutyl)methyl)-3-(3-fluorobicyclo[1.1.1]pentan-1-yl)-N-(2-(S-methylsulfonimidoyl)pyridin-4-yl)-4-(trifluoromethyl)-1H-pyrazole-5-carboxamide] | ≤ 100 |
| CC1(Cn2nc(C3CC3F)c(C(F)(F)F)c2C(=O)Nc2ccnc(S(C)(=N)=O)c2)CC(F)(F)C1 (racemic) [Example 62a, 1-((3,3-Difluoro-1-methylcyclobutyl)methyl)-3-(2-fluorocyclopropyl)-N-(2-(S-methylsulfonimidoyl)pyridin-4-yl)-4-(trifluoromethyl)-1H-pyrazole-5-carboxamide] | ≤ 100 |
| CC1(Cn2nc(C3CC4(CC4)C3)c(C(F)(F)F)c2C(=O)Nc2ccnc(S(C)(=N)=O)c2)CC(F)(F)C1 (single isomer, unassigned) [Example 61b, 1-((3,3-Difluoro-1-methylcyclobutyl)methyl)-N-(2-(S-methylsulfonimidoyl)pyridin-4-yl)-3-(spiro[2.3]hexan-5-yl)-4-(trifluoromethyl)-1H-pyrazole-5-carboxamide] | ≤ 100 |
